Data published in BindingDB's records for doi:10.7270/Q2QF8R8B (Pcmd, 2008).

Biological target: T1, Cathepsin G (Homo sapiens, UniProt P08311)
T1 sequence (P08311 whole entry): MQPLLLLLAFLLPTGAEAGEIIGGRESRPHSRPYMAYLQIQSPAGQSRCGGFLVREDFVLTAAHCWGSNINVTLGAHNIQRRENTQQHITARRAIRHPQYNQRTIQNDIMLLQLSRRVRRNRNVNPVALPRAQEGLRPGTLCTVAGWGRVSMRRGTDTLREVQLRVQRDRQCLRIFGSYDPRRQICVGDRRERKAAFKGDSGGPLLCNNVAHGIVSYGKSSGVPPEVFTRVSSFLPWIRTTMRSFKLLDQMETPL
Experiment: IC50 of CTSG protease blockers – biochemical, confirmation, dose response (AID 832)

| IC50 [µM] | Compound |
| --- | --- |
| 3.26 | Nc1cc(OC(=O)c2cccs2)nn1S(=O)(=O)c1ccccc1 [SMR000021562] |
| > 50 | O=C1CS/C(=N\c2ccc(O)cc2)N1c1ccc(O)cc1 [MLS000027731] |
| 1.58 | COc1ccc2c(c1)CCc1c(C(=O)NCc3ccco3)noc1-2 [MLS000087436] |
| 44.4 | COc1ccc(-c2cc(C(=O)Nc3c(C)nn(Cc4ccccc4Cl)c3C)no2)cc1 [MLS000087058] |
| 6.45 | Cc1ccccc1Cn1nc(C)c(NC(=O)c2noc3c2CCc2ccccc2-3)c1C [MLS000116424] |
| 22.6 | Cc1ccccc1CS(=O)(=O)c1nnc([C@H](CC(C)C)NC(=O)OC(C)(C)C)o1 [SMR000044673] |
| 9.38 | CC(C)[C@H](NC(=O)OC(C)(C)C)c1nnc(S(=O)(=O)Cc2c(F)cccc2Cl)o1 [SMR000044502] |
| 43.2 | COc1ccc(-c2cc(C(=O)NCc3ccc(Cl)cc3)no2)cc1OC [MLS000087122] |
| 2.17 | CC(=O)Nc1cccc(-c2nc3ccccc3c(=O)o2)c1 [MLS000061720] |
| > 50 | Cc1ccc(NC(=O)Cc2nn(C)c(=O)c3ccccc23)cc1F [MLS000047015] |
| 4.33 | O=C(c1csc2ccccc12)n1cccn1 [MLS000065687] |
| 10.8 | Cc1nn(C(=O)c2ccccc2)c2c1C(=O)CC(C)(C)C2 [SMR000069174] |

The next lines start with the molecule.

| Compound | IC50 [µM] |
| --- | --- |
| O=C(CCSc1nccn1Cc1ccccc1)N1CCOCC1 [1-(4-morpholinyl)-3-[[1-(phenylmethyl)-2-imidazolyl]thio]-1-propanone] | > 50 |
| Cc1cc(C)cc(C(=O)n2cnnc2N)c1 | 3.88 |
| CSc1nc(-c2ccco2)nn1C(=O)c1ccc(C)cc1 [[3-(furan-2-yl)-5-methylsulfanyl-1,2,4-triazol-1-yl]-(4-methylphenyl)methanone] | 1.02 |
| CCCC(=O)Nc1ccc(C(=O)n2nnc3ccccc32)cc1 [N-[4-(1H-1,2,3-benzotriazol-1-ylcarbonyl)phenyl]butanamide] | 0.923 |
| COc1ccc(C(=O)n2nc(-c3ccc(C)cc3)nc2N)cc1OC | > 50 |
| COc1ccc(S(=O)(=O)n2nc(OC(=O)c3cccs3)cc2N)cc1 [2-thiophenecarboxylic acid [5-amino-1-(4-methoxyphenyl)sulfonyl-3-pyrazolyl] ester] | 2.52 |
| CCSc1ccccc1C(=O)n1nnc2ccccc21 | 9.8 |
| O=C(NCc1cccs1)c1cc(-c2cccs2)on1 [5-thien-2-yl-N-(thien-2-ylmethyl)isoxazole-3-carboxamide] | 15.2 |
| CCN1C(=O)c2ccc(-c3nc4ccccc4c(=O)o3)cc2C1=O [2-ethyl-5-(4-keto-3,1-benzoxazin-2-yl)isoindoline-1,3-quinone] | > 50 |
| Cc1ccc(S(=O)(=O)n2nc(OC(=O)c3cccs3)cc2N)cc1 | 8.07 |
| CCOC(=O)c1ccc(NC(=O)CS(=O)(=O)c2cn(CC)c3ccccc23)cc1 [4-[[2-(1-ethylindol-3-yl)sulfonylacetyl]amino]benzoic acid ethyl ester] | > 50 |
| COc1ccccc1-c1cc(C(=O)NCc2ccccc2)no1 [5-(2-methoxyphenyl)-N-(phenylmethyl)-1,2-oxazole-3-carboxamide] | 13.3 |
| O=c1oc(-c2ccco2)nc2ccccc12 [2-Furan-2-yl-benzo[d][1,3]oxazin-4-one] | 0.793 |
| O=C(NCCCn1ccnc1)c1noc2c1CCc1ccccc1-2 [N-[3-(1-imidazolyl)propyl]-4,5-dihydrobenzo[g][1,2]benzoxazole-3-carboxamide] | 3.73 |
| O=c1oc(-c2cccc(S(=O)(=O)N3CCOCC3)c2)nc2ccccc12 [2-(3-morpholin-4-ylsulfonylphenyl)-3,1-benzoxazin-4-one] | 4.05 |
| COc1ccc(CNC(=O)c2cc(-c3ccc(OC)c(OC)c3)on2)cc1 [5-(3,4-dimethoxyphenyl)-N-(4-methoxybenzyl)isoxazole-3-carboxamide] | > 50 |
| O=C(c1csc2c1CCCC2)n1cccn1 [1-(4,5,6,7-tetrahydro-1-benzothien-3-ylcarbonyl)-1H-pyrazole] | 3.61 |
